Active and inactive are the calls of the source. No cut-off for these calls is given here.
Tests used:
Wee1-like protein kinase [1] = molecular target: T1, Wee1-like protein kinase (Homo sapiens, UniProt P30291); assay: Inhibition of human Weel1 in human NCI-H1299 cells assessed as phosphorylation of Cdk1 after overnight incubation by ELISA PD assay; assay type: cell-based
Wee1-like protein kinase [2] = molecular target: T1, Wee1-like protein kinase; assay: Inhibition of GST-tagged human Wee1
NCI-H1299 [3] = assay: Cytotoxicity against human NCI-H1299 cells assessed as cell viability after 72 hrs by CellTiterGlo assay; assay type: functional, cell-based; conditions: NCI-H1299, 72 h
[4] = Clearance in CD-1 mouse at 3 mg/kg, iv; assay type: ADME, organism-based; design: dose 3 mg/kg, route intravenous; conditions: in vivo
[5] = AUC in CD-1 mouse at 10 mg/kg, po; assay type: ADME, organism-based; design: dose 10 mg/kg, route oral; conditions: plasma
[6] = Half life in CD-1 mouse at 3 mg/kg, iv; assay type: ADME, organism-based; design: dose 3 mg/kg, route intravenous; conditions: in vivo
[7] = Oral bioavailability in CD-1 mouse at 10 mg/kg; assay type: ADME, organism-based; conditions: in vivo
[8] = Drug uptake in human NCI-H1299 cells xenografted in mouse assessed in tumor at 100 mg/kg, po qd after 6 hrs; assay type: ADME, organism-based, Neoplasm; design: dose 100 mg/kg, route oral; conditions: read-out: Drug uptake
NCI-H1299 [9] = assay: Antitumor activity against human NCI-H1299 cells xenografted in mouse assessed as tumor growth inhibition at 50 mg/kg, po qd from day 28 to 41 after tumor inoculation in presence of 10 mg/kg irinotecan; assay type: functional
NCI-H1299 [10] = assay: Antitumor activity against human NCI-H1299 cells xenografted in mouse assessed as depletion of pY15 bands at 100 mg/kg, po after 10 hrs; assay type: functional, organism-based; design: dose 100 mg/kg
[11] = Drug uptake in human NCI-H1299 cells xenografted in mouse assessed in tumor at 100 mg/kg, po qd after 10 hrs; assay type: ADME, organism-based, Neoplasm; design: dose 100 mg/kg, route oral; conditions: read-out: Drug uptake
[12] = Plasma concentration in human NCI-H1299 cells xenografted in mouse at 100 mg/kg, po qd after 6 hrs; assay type: ADME, organism-based; design: dose 100 mg/kg, route oral
[13] = Plasma concentration in human NCI-H1299 cells xenografted in mouse at 100 mg/kg, po qd after 10 hrs; assay type: ADME, organism-based; design: dose 100 mg/kg, route oral
NCI-H1299 [14] = assay: Antitumor activity against human NCI-H1299 cells xenografted in mouse assessed as tumor growth inhibition at 50 mg/kg, po qd from day 28 to 41 after tumor inoculation; assay type: functional; conditions: NCI-H1299, 672 h, read-out: TGI
NCI-H1299 [15] = assay: Antitumor activity against human NCI-H1299 cells xenografted in mouse assessed as tumor growth delay at 50 mg/kg, po qd from day 28 to 41 after tumor inoculation in presence of 10 mg/kg irinotecan; assay type: functional
NCI-H1299 [16] = assay: Antitumor activity against human NCI-H1299 cells xenografted in mouse assessed as depletion of pY15 bands at 100 mg/kg, po after 6 hrs; assay type: functional, organism-based; design: dose 100 mg/kg
Mus musculus = assay: In vivo inhibition of Wee1 in human NCI-H1299 cells xenografted in mouse assessed as pY15 CDK expression at 100 mg/kg, po qd after 6 to 10 hrs; assay type: functional, organism-based; design: dose 100 mg/kg
NCI-H1299 [17] = assay: Antitumor activity against human NCI-H1299 cells xenografted in mouse assessed as tumor growth inhibition at 10 mg/kg, po qd from day 28 to 41 after tumor inoculation; assay type: functional; conditions: NCI-H1299, 672 h, read-out: TGI

T1 sequence (P30291 whole entry): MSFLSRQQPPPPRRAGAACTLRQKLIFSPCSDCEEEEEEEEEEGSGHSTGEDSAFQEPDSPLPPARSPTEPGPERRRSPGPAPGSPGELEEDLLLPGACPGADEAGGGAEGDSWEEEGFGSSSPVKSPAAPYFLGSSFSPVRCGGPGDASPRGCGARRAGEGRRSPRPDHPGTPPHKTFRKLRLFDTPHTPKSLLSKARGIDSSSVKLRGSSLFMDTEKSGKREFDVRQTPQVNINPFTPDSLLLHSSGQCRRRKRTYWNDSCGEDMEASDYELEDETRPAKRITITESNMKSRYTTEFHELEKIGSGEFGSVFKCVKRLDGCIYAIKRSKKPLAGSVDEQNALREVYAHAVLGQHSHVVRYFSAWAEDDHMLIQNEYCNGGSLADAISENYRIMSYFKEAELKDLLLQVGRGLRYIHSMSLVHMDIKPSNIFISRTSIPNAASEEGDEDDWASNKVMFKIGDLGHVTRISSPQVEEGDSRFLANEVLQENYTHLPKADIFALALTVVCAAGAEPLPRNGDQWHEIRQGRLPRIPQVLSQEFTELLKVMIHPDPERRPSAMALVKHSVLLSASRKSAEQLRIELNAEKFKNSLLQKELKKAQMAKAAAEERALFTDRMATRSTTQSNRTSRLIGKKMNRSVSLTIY

EC50 (Wee1-like protein kinase [1]) [µM]	Ki (Wee1-like protein kinase [2]) [µM]	clearance [4] [L/h/kg]	AUC [5] [µM·h]	half-life [6] [h]	bioavailability [7] [%]	Compound	EC50 (NCI-H1299 [3]) [µM]	also measured
2.3	0.0086					CN1CCCc2ccc(Nc3ncc4c(=O)n(-c5ccccc5Cl)c5nccn5c4n3)cc21	> 10	
3.1	0.0083					CN1CCC(c2ccc(Nc3ncc4c(=O)n(-c5ccccc5Cl)c5nccn5c4n3)cc2)CC1	9.6	
2.7	0.0074					CN1CCCc2cc(Nc3ncc4c(=O)n(-c5ccccc5Cl)c5nccn5c4n3)ccc21	9.3	
						CN1CCN(c2ccc(Nc3ncc4c(=O)n(-c5c(F)cccc5Cl)c5nccn5c4n3)cc2)CC1	0.45	
	> 3.14					O=c1c2cnc(NC3CCCCC3)nc2n2ccnc2n1-c1ccccc1Cl		
0.027	< 0.001					CN1Cc2cc(Nc3ncc4c(=O)n(-c5c(Cl)cccc5Cl)c5nccn5c4n3)ccc2C2(CC2)C1	0.22	
1.1	0.0066					CC(=O)N1CCN(c2ccc(Nc3ncc4c(=O)n(-c5ccccc5Cl)c5nccn5c4n3)cc2)CC1	3.3	
6	0.026					O=c1c2cnc(Nc3ccc4c(c3)CCCC4)nc2n2ccnc2n1-c1ccccc1Cl	7.3	
0.62	0.0054					CC(=O)N1Cc2cc(Nc3ncc4c(=O)n(-c5ccccc5Cl)c5nccn5c4n3)ccc2C2(CC2)C1	2	
6.8	0.021					O=c1c2cnc(Nc3ccccc3)nc2n2ccnc2n1-c1ccccc1Cl	5.9	
10	0.087					O=c1c2cnc(Nc3ccc(C4CCCCC4)cc3)nc2n2ccnc2n1-c1ccccc1Cl	> 10	
0.029	< 0.001	1.1	12	2.6	68	CN1Cc2cc(Nc3ncc4c(=O)n(-c5c(F)cccc5Cl)c5nccn5c4n3)ccc2C2(CC2)C1	0.21	
0.06	< 0.001	0.55	24	2.8	94	CN1Cc2cc(Nc3ncc4c(=O)n(-c5c(F)cccc5Cl)c5nccn5c4n3)ccc2C(C)(C)C1	0.31	concentration at 6 h [8]: 47.1 µM; TGI (NCI-H1299 [9]): 83%; inhibition (NCI-H1299 [10]): Active; concentration at 10 h [11]: 53.4 µM; concentration at 6 h [12]: 20 µM; concentration at 10 h [13]: 13.7 µM; inhibition in vivo at 50 mg/kg (NCI-H1299 [14]): 43%; Activity (NCI-H1299 [15]): 25%; inhibition (NCI-H1299 [16]): Active; inhibition (Mus musculus): Active
0.098	< 0.001	1.4	12.3	2.8	80	CN1Cc2cc(Nc3ncc4c(=O)n(-c5ccccc5Cl)c5nccn5c4n3)ccc2C(C)(C)C1	0.55	
0.22	0.0016	2.2	5.2	1.5	52	CN1CCc2ccc(Nc3ncc4c(=O)n(-c5ccccc5Cl)c5nccn5c4n3)cc2C1	0.77	
0.087	< 0.001	2	6.5	1.7	55	CN1CCN(c2ccc(Nc3ncc4c(=O)n(-c5c(Cl)cccc5Cl)c5nccn5c4n3)cc2)CC1	0.19	
0.1	0.0012	1.5	9.8	2.3	70	CN1Cc2cc(Nc3ncc4c(=O)n(-c5ccccc5Cl)c5nccn5c4n3)ccc2C2(CC2)C1	0.69	
< 0.013	< 0.001	0.97	9.8	3.9	49	CN1Cc2cc(Nc3ncc4c(=O)n(-c5c(Cl)cccc5Cl)c5nccn5c4n3)ccc2C(C)(C)C1	0.23	
	> 3.14					CN1CCN(c2ccccc2Nc2ncc3c(=O)n(-c4ccccc4Cl)c4nccn4c3n2)CC1		
3.8	0.0055					O=c1c2cnc(Nc3ccc(N4CCCCC4)cc3)nc2n2ccnc2n1-c1ccccc1Cl	9.8	
						CCc1c2c(nc3ccc(OC(=O)N4CCC(N5CCCCC5)CC4)cc13)-c1cc3c(c(=O)n1C2)COC(=O)[C@]3(O)CC [IRINOTECAN]		inhibition in vivo at 10 mg/kg (NCI-H1299 [17]): 67%; TGI (NCI-H1299 [9]): 83%
0.37	0.0023	1.8	8.4	1.9	72	CN1CCN(c2ccc(Nc3ncc4c(=O)n(-c5ccccc5Cl)c5nccn5c4n3)cc2)CC1	1	
1.5	0.0062					CN1CCN(c2cccc(Nc3ncc4c(=O)n(-c5ccccc5Cl)c5nccn5c4n3)c2)CC1	6.5	
